According to US20230340011A1 (Asteroid Therapeutics, priority 2022, published 2023):
pEC50: −log10 of the molar value.

Each molecule was assayed against LXRβ (Homo sapiens (Human), UniProt P55055) (assay: In vitro assay LXRβ: PathHunter NHR CHO cells, LXRβ / Steroid Receptor Co-activator Peptide enzyme fragment complementation). Conditions: PathHunter NHR CHO cells, full-length human LXRβ and SRCP, chemiluminescent signal; read-out: LXRβ PPI.
Format: cell-based
Protocol: PathHunter NHR CHO cells stably transfected with tagged full-length human LXRβ and a nuclear fusion protein containing Steroid Receptor Co-activator Peptide (SRCP). The full-length human LXRβ was tagged with the ProLink™ component of the DiscoverX Enzyme Fragment Complementation (EFC) system and the SRCP domain is fused to the enzyme acceptor component (EA) expressed in the nucleus. Cells were seeded in a total volume of 20 μL into white walled, 384-well microplates and incubated at 37° C. overnight prior to testing. Assay media contained charcoal-dextran filtered serum to reduce the level of hormones present. Final assay vehicle concentration was 1%. […] Microplates were read following signal generation with a PerkinElmer Envision instrument for chemiluminescent signal detection.

Sequence of LXRβ (P55055 whole entry, the tested form may be a part): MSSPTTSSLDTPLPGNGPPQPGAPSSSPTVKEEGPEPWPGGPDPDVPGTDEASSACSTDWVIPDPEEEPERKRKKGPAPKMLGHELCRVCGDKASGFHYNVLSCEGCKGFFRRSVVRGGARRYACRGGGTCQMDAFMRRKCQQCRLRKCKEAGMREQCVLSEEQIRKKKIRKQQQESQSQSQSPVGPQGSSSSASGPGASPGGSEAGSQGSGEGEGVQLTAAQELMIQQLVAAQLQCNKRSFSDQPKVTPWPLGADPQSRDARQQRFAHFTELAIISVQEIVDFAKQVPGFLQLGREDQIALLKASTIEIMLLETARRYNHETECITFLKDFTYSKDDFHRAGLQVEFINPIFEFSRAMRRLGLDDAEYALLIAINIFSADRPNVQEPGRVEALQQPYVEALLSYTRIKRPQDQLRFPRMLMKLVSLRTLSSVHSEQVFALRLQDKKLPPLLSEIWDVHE

SMILES | pEC50
CON(C(=O)CC[C@@H](C)[C@H]1CC[C@H]2[C@@H]3CC=C4C[C@@H](O)CC[C@]4(C)[C@H]3CC[C@]12C)C(C)C [Example 15, (R)-4-((3S,8S,9S,10R,13R,14S,17R)-3-hydroxy-10,13-dimethyl-2,3,4,7,8,9,10,11,12,13,14,15,16,17-tetradecahydro-1H-cyclopenta[a]phenanthren-17-yl)-N-isopropyl-N-methoxypentanamide] | 5.00 to 6.00
C[C@H](CCC(=O)N1CCC(OC(F)(F)F)CC1)[C@H]1CC[C@H]2[C@@H]3CC=C4C[C@@H](O)CC[C@]4(C)[C@H]3CC[C@]12C [Example 251, (4R)-4-[(1R,3aS,3bS,7S,9aR,9bS,11aR)-7-hydroxy-9a,11a-dimethyl-1H,2H,3H,3aH,3bH,4H,6H,7H,8H,9H,9aH,9bH,10H,11H,11aH-cyclopenta[a]phenanthren-1-yl]-1-[4-(trifluoromethoxy)piperidin-1-yl]pentan-1-one] | < 5.00
C[C@H](CCC(=O)N1CCN(c2cnn(C)c2)CC1)[C@H]1CC[C@H]2[C@@H]3CC=C4C[C@@H](O)CC[C@]4(C)[C@H]3CC[C@]12C [Example 214, (R)-4-((3S,8S,9S,10R,13R,14S,17R)-3-hydroxy-10,13-dimethyl-2,3,4,7,8,9,10,11,12,13,14,15,16,17-tetradecahydro-1H-cyclopenta[a]phenanthren-17-yl)-1-(4-(1-methyl-1H-pyrazol-4-yl)piperazin-1-yl)pentan-1-one] | < 5.00
C[C@H](CCC(=O)N1CCN(C(=O)c2ccnnc2)CC1)[C@H]1CC[C@H]2[C@@H]3CC=C4C[C@@H](O)CC[C@]4(C)[C@H]3CC[C@]12C [Example 312, (R)-4-((3S,8S,9S,10R,13R,14S,17R)-3-hydroxy-10,13-dimethyl-2,3,4,7,8,9,10,11,12,13,14,15,16,17-tetradecahydro-1H-cyclopenta[a]phenanthren-17-yl)-1-(4-(pyridazine-4-carbonyl)piperazin-1-yl) pentan-1-one] | < 5.00
CCCON(C)C(=O)CC[C@@H](C)[C@H]1CC[C@H]2[C@@H]3CC=C4C[C@@H](O)CC[C@]4(C)[C@H]3CC[C@]12C [Example 12, (R)-4-((3S,8S,9S,10R,13R,14S,17R)-3-hydroxy-10,13-dimethyl-2,3,4,7,8,9,10,11,12,13,14,15,16,17-tetradecahydro-1H-cyclopenta[a]phenanthren-17-yl)-N-methyl-N-propoxypentanamide] | 6.00 to 6.60
C[C@H](CCC(=O)N1CCC(CNS(C)(=O)=O)CC1)[C@H]1CC[C@H]2[C@@H]3CC=C4C[C@@H](O)CC[C@]4(C)[C@H]3CC[C@]12C [Example 232, N-((1-((R)-4-((3S,8S,9S,10R,13R,14S,17R)-3-hydroxy-10,13-dimethyl-2,3,4,7,8,9,10,11,12,13,14,15,16,17-tetradecahydro-1H-cyclopenta[a]phenanthren-17-yl)pentanoyl)piperidin-4-yl)methyl)methanesulfonamide] | < 5.00
Cc1nnc(N2CCN(C(=O)CC[C@@H](C)[C@H]3CC[C@H]4[C@@H]5CC=C6C[C@@H](O)CC[C@]6(C)[C@H]5CC[C@]34C)CC2)s1 [Example 225, (R)-4-((3S,8S,9S,10R,13R,14S,17R)-3-hydroxy-10,13-dimethyl-2,3,4,7,8,9,10,11,12,13,14,15,16,17-tetradecahydro-1H-cyclopenta[a]phenanthren-17-yl)-1-(4-(5-methyl-1,3,4-thiadiazol-2-yl)piperazin-1-yl)pentan-1-one] | < 5.00
C[C@H](CCC(=O)N1CCC(Oc2ccncn2)CC1)[C@H]1CC[C@H]2[C@@H]3CC=C4C[C@@H](O)CC[C@]4(C)[C@H]3CC[C@]12C [Example 221, (4R)-4-[(1R,3aS,3bS,7S,9aR,9bS,11aR)-7-hydroxy-9a,11a-dimethyl-1H,2H,3H,3aH,3bH,4H,6H,7H,8H,9H,9aH,9bH,10H,11H,11aH-cyclopenta[a]phenanthren-1-yl]-1-[4-(pyrimidin-4-yloxy)piperidin-1-yl]pentan-1-one] | 5.00 to 6.00
C[C@H](CCC(=O)N1CCN(Cc2cncnc2)CC1)[C@H]1CC[C@H]2[C@@H]3CC=C4C[C@@H](O)CC[C@]4(C)[C@H]3CC[C@]12C [Example 224, (4R)-4-[(1R,3aS,3bS,7S,9aR,9bS,11aR)-7-hydroxy-9a,11a-dimethyl-1H,2H,3H,3aH,3bH,4H,6H,7H,8H,9H,9aH,9bH,10H,11H,11aH-cyclopenta[a]phenanthren-1-yl]-1-{4-[(pyrimidin-5-yl)methyl]piperazin-1-yl}pentan-1-one] | < 5.00
COCCON(C)C(=O)CC[C@@H](C)[C@H]1CC[C@H]2[C@@H]3CC=C4C[C@@H](O)CC[C@]4(C)[C@H]3CC[C@]12C [Example 27, (R)-4-((3S,8S,9S,10R,13R,14S,17R)-3-hydroxy-10,13-dimethyl-2,3,4,7,8,9,10,11,12,13,14,15,16,17-tetradecahydro-1H-cyclopenta[a]phenanthren-17-yl)-N-(2-methoxyethoxy)-N-methylpentanamide] | 5.00 to 6.00
CNc1nccc(N2CCN(C(=O)CC[C@@H](C)[C@H]3CC[C@H]4[C@@H]5CC=C6C[C@@H](O)CC[C@]6(C)[C@H]5CC[C@]34C)CC2)n1 [Example 561, (R)-4-((3S,8S,9S,10R,13R,14S,17R)-3-hydroxy-10,13-dimethyl-2,3,4,7,8,9,10,11,12,13,14,15,16,17-tetradecahydro-1H-cyclopenta[a]phenanthren-17-yl)-1-(4-(2-(methylamino)pyrimidin-4-yl)piperazin-1-yl)pentan-1-one] | < 5.00
CC(NS(C)(=O)=O)C1CCN(C(=O)CC[C@@H](C)[C@H]2CC[C@H]3[C@@H]4CC=C5C[C@@H](O)CC[C@]5(C)[C@H]4CC[C@]23C)CC1 (stereo partly drawn) [Example 229, N-(1-(1-((R)-4-((3S,8S,9S,10R,13R,14S,17R)-3-hydroxy-10,13-dimethyl-2,3,4,7,8,9,10,11,12,13,14,15,16,17-tetradecahydro-1H-cyclopenta[a]phenanthren-17-yl)pentanoyl)piperidin-4-yl)ethyl)methanesulfonamide] | < 5.00
C[C@H](CCC(=O)N1O[C@@H]2C[C@H]1[C@@H](O)[C@H]2O)[C@H]1CC[C@H]2[C@@H]3CC=C4C[C@@H](O)CC[C@]4(C)[C@H]3CC[C@]12C [Example 55, (R)-1-((1R,4S,5R,6R)-5,6-dihydroxy-2-oxa-3-azabicyclo[2.2.1]heptan-3-yl)-4-((3S,8S,9S,10R,13R,14S,17R)-3-hydroxy-10,13-dimethyl-2,3,4,7,8,9,10,11,12,13,14,15,16,17-tetradecahydro-1H-cyclopenta[a]phenanthren-17-yl)pentan-1-one] | < 5.00
C[C@H](CCC(=O)N1CCN(c2ccnn2C)CC1)[C@H]1CC[C@H]2[C@@H]3CC=C4C[C@@H](O)CC[C@]4(C)[C@H]3CC[C@]12C [Example 226, (R)-4-((3S,8S,9S,10R,13R,14S,17R)-3-hydroxy-10,13-dimethyl-2,3,4,7,8,9,10,11,12,13,14,15,16,17-tetradecahydro-1H-cyclopenta[a]phenanthren-17-yl)-1-(4-(1-methyl-1H-pyrazol-5-yl)piperazin-1-yl)pentan-1-one] | < 5.00
CC(=O)N1CCN(C(=O)CC[C@@H](C)[C@H]2CC[C@H]3[C@@H]4CC=C5C[C@@H](O)CC[C@]5(C)[C@H]4CC[C@]23C)C[C@H]1C [Example 278, (R)-1-((R)-4-acetyl-3-methylpiperazin-1-yl)-4-((3S,8S,9S,10R,13R,14S,17R)-3-hydroxy-10,13-dimethyl-2,3,4,7,8,9,10,11,12,13,14,15,16,17-tetradecahydro-1H-cyclopenta[a]phenanthren-17-yl)pentan-1-one] | < 5.00
C[C@H]1CON(C(=O)CC[C@@H](C)[C@H]2CC[C@H]3[C@@H]4CC=C5C[C@@H](O)CC[C@]5(C)[C@H]4CC[C@]23C)C1 [Example 58, (R)-4-((3S,8S,9S,10R,13R,14S,17R)-3-hydroxy-10,13-dimethyl-2,3,4,7,8,9,10,11,12,13,14,15,16,17-tetradecahydro-1H-cyclopenta[a]phenanthren-17-yl)-1-((R)-4-methylisoxazolidin-2-yl)pentan-1-one] | 6.00 to 6.60
CC(=O)N1CCC(N(C)C(=O)CC[C@@H](C)[C@H]2CC[C@H]3[C@@H]4CC=C5C[C@@H](O)CC[C@]5(C)[C@H]4CC[C@]23C)CC1 [Example 407, (4R)-4-[(1R,3aS,3bS,7S,9aR,9bS,11aR)-7-hydroxy-9a,11a-dimethyl-1H,2H,3H,3aH,3bH,4H,6H,7H,8H,9H,9aH,9bH,10H,11H,11aH-cyclopenta[a]phenanthren-1-yl]-N-(1-acetylpiperidin-4-yl)-N-methylpentanamide] | < 5.00
CC(=O)N1CCN(C(=O)CC[C@@H](C)[C@H]2CC[C@H]3[C@@H]4CC=C5C[C@@H](O)CC[C@]5(C)[C@H]4CC[C@]23C)C[C@@H]1C [Example 277, (R)-1-((S)-4-acetyl-3-methylpiperazin-1-yl)-4-((3S,8S,9S,10R,13R,14S,17R)-3-hydroxy-10,13-dimethyl-2,3,4,7,8,9,10,11,12,13,14,15,16,17-tetradecahydro-1H-cyclopenta[a]phenanthren-17-yl)pentan-1-one] | < 5.00
C[C@H](CCC(=O)N1CCC(Oc2ccncc2)CC1)[C@H]1CC[C@H]2[C@@H]3CC=C4C[C@@H](O)CC[C@]4(C)[C@H]3CC[C@]12C [Example 301, (4R)-4-[(1R,3aS,3bS,7S,9aR,9bS,11aR)-7-hydroxy-9a,11a-dimethyl-1H,2H,3H,3aH,3bH,4H,6H,7H,8H,9H,9aH,9bH,10H,11H,11aH-cyclopenta[a]phenanthren-1-yl]-1-[4-(pyridin-4-yloxy)piperidin-1-yl]pentan-1-one] | < 5.00
COC(=O)N1CCN(C(=O)CCC[C@H]2CC[C@H]3[C@@H]4CC=C5C[C@@H](O)CC[C@]5(C)[C@H]4CC[C@]23C)CC1 [Example 283] | < 5.00
